Calls of active or inactive are those of the source.
How the values were obtained:
[1] = target: T1, Probable nicotinate-nucleotide adenylyltransferase (Staphylococcus aureus (strain N315), UniProt P65502); assay type: functional, Staphylococcus aureus subsp. aureus N315; conditions: read-out: IC50_Mean;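 as to IC50 Mean: confirmatory dose-response retesting of NadD inhibitor hits first found in an ultra-high-throughput screen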
[2] = target: T1, Probable nicotinate-nucleotide adenylyltransferase; assay type: functional, Staphylococcus aureus subsp. aureus N315
[3] = target: T2, Methionyl-tRNA synthetase, putative (Trypanosoma brucei brucei, UniProt Q38C91); assay type: functional, Trypanosoma brucei brucei strain 927/4 GUTat10.1
T2 sequence (Q38C91 whole entry): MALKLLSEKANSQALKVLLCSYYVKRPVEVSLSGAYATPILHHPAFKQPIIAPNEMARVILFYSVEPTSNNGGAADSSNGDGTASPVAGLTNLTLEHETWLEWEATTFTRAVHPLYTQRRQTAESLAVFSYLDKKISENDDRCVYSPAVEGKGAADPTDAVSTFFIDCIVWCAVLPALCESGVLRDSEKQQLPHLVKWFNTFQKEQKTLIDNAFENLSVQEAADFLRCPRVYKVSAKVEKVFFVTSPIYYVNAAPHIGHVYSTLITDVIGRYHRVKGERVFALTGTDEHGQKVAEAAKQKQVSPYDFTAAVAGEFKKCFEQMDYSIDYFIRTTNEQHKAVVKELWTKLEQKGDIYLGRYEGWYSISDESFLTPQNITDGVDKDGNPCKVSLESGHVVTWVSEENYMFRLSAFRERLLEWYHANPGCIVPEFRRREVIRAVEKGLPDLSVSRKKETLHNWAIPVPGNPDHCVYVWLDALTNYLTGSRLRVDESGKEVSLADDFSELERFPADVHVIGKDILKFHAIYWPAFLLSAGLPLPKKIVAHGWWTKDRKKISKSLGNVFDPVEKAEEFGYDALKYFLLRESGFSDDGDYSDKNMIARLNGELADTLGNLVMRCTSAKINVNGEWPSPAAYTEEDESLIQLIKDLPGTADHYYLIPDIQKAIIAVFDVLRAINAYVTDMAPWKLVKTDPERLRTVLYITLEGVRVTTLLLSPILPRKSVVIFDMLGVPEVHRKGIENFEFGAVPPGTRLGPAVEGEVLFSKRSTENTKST

[4] = Counterscreen for inhibitors of Trypanosoma brucei methionyl tRNA synthetase (MetRS): Luminescence-based cell-based high throughput dose response assay to identify compounds that are cytotoxic to Jurkat human T lymphocyte cells.; assay type: functional
[5] = target: T2, Methionyl-tRNA synthetase, putative; assay type: functional, Trypanosoma brucei brucei strain 927/4 GUTat10.1; remark: listed apart in the source
[6] = NIH3T3 cell viability loss – ATP luminescence, mouse fibroblasts, counter-screen, dose response (AID 2010); assay type: functional, cell-based;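 also: cells exposed to compound for about 90 hours before reading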
[7] = Trypanosoma cruzi growth suppression in host cells – NIH3T3 host cells, beta-gal luminescence, confirmation (AID 2044); assay type: functional, cell-based;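 also: intracellular parasites grown in NIH/3T3 mouse fibroblasts as host cells; luminescent beta-galactosidase reporter signal from transgenic T. cruzi replicating inside host cells; inhibitors lower the luminescence signal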
[8] = Luminescence Cell-Based Dose Response HTS to Identify Activators of Luciferase Translation or Activity in H4 […] Cells. [Related pubchem assays: 1829 (Project Summary), 1814 (Primary HTS)]; assay type: functional
H4 = test: Luminescence Cell-Based Dose Response HTS to Identify Activators of 5'UTR Stem-Loop Driven Prion Protein mRNA Translation in H4 Neuroglioblastoma Cells. [Related pubchem assays: 1829 (Project Summary), 1814 (Primary HTS)]; assay type: functional; conditions: Homo sapiens
[9] = target: T3, DNA repair protein RAD52 homolog (Homo sapiens, UniProt P43351); assay type: functional, biochemical
T3 sequence (P43351 whole entry): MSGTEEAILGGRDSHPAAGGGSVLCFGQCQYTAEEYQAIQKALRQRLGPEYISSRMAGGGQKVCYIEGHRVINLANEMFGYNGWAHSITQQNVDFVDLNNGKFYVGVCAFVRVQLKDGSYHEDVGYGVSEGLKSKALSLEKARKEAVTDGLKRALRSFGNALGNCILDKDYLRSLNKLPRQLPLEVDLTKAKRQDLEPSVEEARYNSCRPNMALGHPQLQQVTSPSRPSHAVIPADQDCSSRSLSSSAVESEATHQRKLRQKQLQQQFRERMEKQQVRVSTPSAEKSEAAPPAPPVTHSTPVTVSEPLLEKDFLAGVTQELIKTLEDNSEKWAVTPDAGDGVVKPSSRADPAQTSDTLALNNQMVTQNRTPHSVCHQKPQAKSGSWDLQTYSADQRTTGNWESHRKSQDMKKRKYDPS

[10] = microbe, parasite or virus in culture; assay type: functional; conditions: Mycobacterium tuberculosis
[11] = cytotoxicity toward MDA-MB-231 breast cancer cells – cell-based, CellTiter-Glo luminescence, cherry-pick, cytotoxicity control for RAD54 inhibitor project, dose response (AID 651692); assay type: functional
[12] = Luminescence Cell-Based Dose Confirmation HTS to Identify Activators of 5'UTR Stem-Loop Driven Alpha-Synuclein mRNA Translation in H4 Neuroglioblastoma Cells. [Related pubchem assays: 1829 (Project Summary), 1814 (Primary HTS)]; assay type: functional
[13] = target: T4, DNA repair and recombination protein RAD54-like (Homo sapiens, UniProt Q92698); test: RAD54 Holliday junction migration blockers – biochemical, fluorescence, cherry-picked samples, dose series, confirmation (AID 651657); assay type: functional
T4 sequence (Q92698 whole entry): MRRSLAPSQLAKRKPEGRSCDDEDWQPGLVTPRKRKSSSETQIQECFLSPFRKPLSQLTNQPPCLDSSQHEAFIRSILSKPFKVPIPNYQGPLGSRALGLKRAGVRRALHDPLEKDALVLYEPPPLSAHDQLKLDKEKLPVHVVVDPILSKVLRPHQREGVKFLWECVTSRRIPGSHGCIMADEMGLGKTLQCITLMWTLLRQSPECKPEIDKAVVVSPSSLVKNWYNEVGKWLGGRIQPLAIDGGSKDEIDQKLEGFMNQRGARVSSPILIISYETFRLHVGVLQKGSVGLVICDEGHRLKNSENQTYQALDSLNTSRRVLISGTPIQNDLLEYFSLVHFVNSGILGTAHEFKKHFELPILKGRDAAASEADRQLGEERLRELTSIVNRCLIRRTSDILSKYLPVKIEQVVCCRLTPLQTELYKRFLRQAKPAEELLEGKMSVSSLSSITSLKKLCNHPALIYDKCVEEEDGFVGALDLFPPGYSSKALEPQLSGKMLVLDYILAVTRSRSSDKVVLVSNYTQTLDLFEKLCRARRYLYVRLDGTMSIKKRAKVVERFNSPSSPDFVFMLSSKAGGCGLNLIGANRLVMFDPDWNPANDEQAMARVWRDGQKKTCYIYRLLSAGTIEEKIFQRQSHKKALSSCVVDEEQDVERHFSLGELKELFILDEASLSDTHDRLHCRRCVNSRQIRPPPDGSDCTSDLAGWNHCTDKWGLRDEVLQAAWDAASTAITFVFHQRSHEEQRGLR

[14] = target: 5-hydroxytryptamine receptor 2A (Mus musculus, UniProt P35363); assay type: functional, cell-based;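 also: CHO-K1 cells with tagged receptor and beta-arrestin; agonist potency measured as compound-induced activation of the receptor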
Chain of 5-hydroxytryptamine receptor 2A (P35363 whole entry): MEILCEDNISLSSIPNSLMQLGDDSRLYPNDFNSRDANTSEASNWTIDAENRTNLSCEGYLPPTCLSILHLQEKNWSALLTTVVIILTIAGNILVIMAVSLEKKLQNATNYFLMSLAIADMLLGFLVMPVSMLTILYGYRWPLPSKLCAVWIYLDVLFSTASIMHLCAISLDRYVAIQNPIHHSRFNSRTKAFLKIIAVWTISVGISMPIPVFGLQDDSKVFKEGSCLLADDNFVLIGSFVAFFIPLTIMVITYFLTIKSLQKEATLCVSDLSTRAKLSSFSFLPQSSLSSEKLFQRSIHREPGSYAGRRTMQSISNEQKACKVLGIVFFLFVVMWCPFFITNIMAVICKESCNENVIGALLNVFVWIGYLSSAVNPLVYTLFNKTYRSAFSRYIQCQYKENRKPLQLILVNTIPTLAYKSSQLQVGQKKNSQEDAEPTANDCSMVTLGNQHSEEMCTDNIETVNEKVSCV

Mu-type opioid receptor = Mu-type opioid receptor (Homo sapiens, UniProt P35372); assay type: functional, cell-based;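 also: U2OS cells with beta-arrestin recruitment to OPRM1 by beta-gal complementation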
Chain of Mu-type opioid receptor (P35372 whole entry): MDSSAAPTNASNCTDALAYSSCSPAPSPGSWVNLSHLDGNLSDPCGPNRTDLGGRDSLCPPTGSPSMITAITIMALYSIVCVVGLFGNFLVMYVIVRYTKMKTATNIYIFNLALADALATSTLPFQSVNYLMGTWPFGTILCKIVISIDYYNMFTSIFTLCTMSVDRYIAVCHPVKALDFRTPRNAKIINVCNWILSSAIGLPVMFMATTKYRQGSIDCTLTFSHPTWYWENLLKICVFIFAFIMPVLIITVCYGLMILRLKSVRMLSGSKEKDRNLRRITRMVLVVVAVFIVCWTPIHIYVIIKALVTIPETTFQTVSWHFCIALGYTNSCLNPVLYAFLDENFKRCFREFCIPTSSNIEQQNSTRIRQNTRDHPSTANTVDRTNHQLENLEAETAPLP

[15] = target: T5, Corticotropin-releasing factor receptor 2/Corticotropin-releasing factor-binding protein (Homo sapiens, UniProt P24387+Q13324); test: Dose Response confirmation of uHTS hits for small molecule antagonists of the CRF-binding protein and CRF-R2 receptor complex.; assay type: functional; conditions: read-out: IC50_Mean
T5 sequence (Q13324 whole entry): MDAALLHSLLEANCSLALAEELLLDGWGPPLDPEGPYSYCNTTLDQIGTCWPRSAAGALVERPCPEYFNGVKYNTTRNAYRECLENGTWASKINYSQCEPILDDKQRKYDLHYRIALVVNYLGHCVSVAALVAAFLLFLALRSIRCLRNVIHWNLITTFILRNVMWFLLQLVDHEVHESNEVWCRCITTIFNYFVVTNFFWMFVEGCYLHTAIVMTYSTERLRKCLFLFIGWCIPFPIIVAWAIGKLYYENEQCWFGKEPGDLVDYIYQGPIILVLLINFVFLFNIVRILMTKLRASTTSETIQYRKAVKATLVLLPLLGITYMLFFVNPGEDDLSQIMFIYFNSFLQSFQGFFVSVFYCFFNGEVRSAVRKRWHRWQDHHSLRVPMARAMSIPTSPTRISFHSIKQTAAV
T5 sequence (P24387 whole entry): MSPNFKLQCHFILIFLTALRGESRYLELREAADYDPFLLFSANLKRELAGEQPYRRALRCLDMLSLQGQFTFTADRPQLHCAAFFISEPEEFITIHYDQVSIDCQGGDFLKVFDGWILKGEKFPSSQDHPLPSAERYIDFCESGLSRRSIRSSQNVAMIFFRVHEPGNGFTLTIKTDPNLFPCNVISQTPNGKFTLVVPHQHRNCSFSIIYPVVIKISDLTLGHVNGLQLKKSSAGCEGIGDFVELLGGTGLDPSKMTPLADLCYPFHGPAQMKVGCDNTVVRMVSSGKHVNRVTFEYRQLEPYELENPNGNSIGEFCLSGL

[16] = blockers of CRF-binding protein–CRF-R2 complex – cell-based, uHTS hits, 384-well, dose response (AID 651639); assay type: functional, Homo sapiens; conditions: read-out: IC50_Mean
[17] = target: T5, Corticotropin-releasing factor receptor 2/Corticotropin-releasing factor-binding protein; test: activators of CRF receptor 2 with binding protein – uHTS hits, confirmation (AID 602473); assay type: functional; conditions: read-out: EC50_Mean
Nonstructural protein 1 = Nonstructural protein 1 (Influenza A virus, UniProt Q194T2); assay type: functional, Influenza A virus (A/California/07/2009(H1N1))
Chain of Nonstructural protein 1 (Q194T2 whole entry): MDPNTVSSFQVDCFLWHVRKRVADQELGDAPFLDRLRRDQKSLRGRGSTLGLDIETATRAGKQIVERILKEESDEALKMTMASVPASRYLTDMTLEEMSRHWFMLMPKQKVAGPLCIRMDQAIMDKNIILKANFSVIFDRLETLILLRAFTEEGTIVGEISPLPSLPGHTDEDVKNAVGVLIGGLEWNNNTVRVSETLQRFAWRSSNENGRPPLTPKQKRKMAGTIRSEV

[18] = Vero E6 cell cytotoxicity, dose response, cytotoxicity control for non-replicating M. tuberculosis project, secondary assay (AID 492998); assay type: functional, VeroE6; conditions: Vero C1008
[19] = HepG2 cell cytotoxicity, dose response, cytotoxicity control for non-replicating M. tuberculosis project (AID 489018); assay type: functional; conditions: Mycobacterium tuberculosis
cells = assay type: functional
[20] = THP-1 cell cytotoxicity, dose response, cytotoxicity control for non-replicating M. tuberculosis project (AID 489025); assay type: functional
[21] = Luminescence Cell-Based Dose Retest to Confirm Inhibitors of Cancer Stem Cells. [Related pubchem assays (depositor defined):AID2717, AID2721]; assay type: functional; conditions: Homo sapiens

T1 sequence (P65502 whole entry): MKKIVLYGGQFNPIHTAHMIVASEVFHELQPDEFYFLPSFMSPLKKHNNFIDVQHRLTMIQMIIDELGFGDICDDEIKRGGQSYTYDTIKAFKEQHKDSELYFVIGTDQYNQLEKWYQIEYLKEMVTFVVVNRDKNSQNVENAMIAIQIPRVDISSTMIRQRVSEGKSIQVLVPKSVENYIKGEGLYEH

Cc1ccc(-c2cc(-c3ccc(C)o3)nc(N)c2C#N)cc1
IC50 [1]: 2.43 µM (active)
IC50 [2]: 1.62 µM (active)

Cc1cc2c(c(=O)n1CC1CCCO1)C(c1ccc3c(c1)OCO3)C(C#N)=C(N)O2 (configuration not stated)
IC50 [3]: 119 µM (inactive)
IC50 [4]: 83.3 µM (inactive)

O=C1[C@@H]2Cc3c([nH]c4ccccc34)C(c3cccc([N+](=O)[O-])c3)N2C(=O)CN1C1CCN(Cc2ccccc2)CC1 (some centres not stated)
IC50 [5]: 3.18 µM (active)
IC50 [3]: 1.82 µM (active)
EC50 [6]: 9.77 µM (active)
IC50 [4]: 27.1 µM (inactive)
EC50 [7]: 1.8 µM (active)

Cc1ccc(C(=O)c2oc3ccc(Cl)cc3c2NC(=O)CN2CCN(C)CC2)cc1
EC50 [8]: > 120 µM (not active)
EC50 (H4): > 120 µM (not active)
AC50 [9]: 5.97 µM (active)
CC50 [10]: 14.2 µM (active)
AC50 [11]: 11.5 µM (active)
EC50 [12]: > 120 µM (not active)
AC50 [13]: 11.8 µM (active)

COc1cccc2c1cc1c(=O)n(CC(=O)N3CCC(C)CC3)nc(C)n12
EC50 [14]: 13.6 µM (inactive)
EC50 (Mu-type opioid receptor): 92.5 µM (inactive)

Cc1cc(C)cc(NC(=O)C(OC(=O)c2ccc(NC(=O)CC#N)cc2)c2ccccc2)c1 (configuration not stated)
IC50 [1]: 22.3 µM (active)
IC50 [2]: 14.6 µM (active)

CCOc1ccc(N/N=C2\C(=O)Nn3c2nc2c(c3=O)CCCC2)cc1
IC50 [15]: 4.73 µM (active)
IC50 [16]: > 20 µM (inactive)
EC50 [17]: > 53 µM (inactive)
IC50 (Nonstructural protein 1): > 100 µM (active)

O=C1NC[C@H](Cc2ccccc2)N(C[C@@H]2CCCN2C[C@H](Cc2ccccc2)N2C[C@H](Cc3ccc(O)cc3)N(CCc3ccccc3)C(=O)C2=O)C1=O
IC50 [1]: 30.8 µM (active)
IC50 [2]: 6.91 µM (active)

CCCN(CCC)CCNC(=O)c1cc2c(-c3ccc(Cl)cc3)nn(C)c2s1
CC50 [18]: 16.6 µM (active)
CC50 [19]: 11.8 µM (active)
EC50 [14]: 6.58 µM (active)
AC50 [9]: 14.5 µM (active)
IC50 (cells): 15.5 µM (active)
EC50 (Mu-type opioid receptor): 92.5 µM (inactive)
CC50 [10]: 15.1 µM (active)
AC50 [11]: 37.1 µM (active)
CC50 [20]: 31.6 µM (active)
AC50 [21]: 3.81 µM (active)
AC50 [13]: 20.9 µM (active)
